Laboratory results from paper PMC3551771, “Pharmacological modulation of histone demethylase activity by a small molecule isolated from subcritical water extracts of Sasa senanensis leaves prolongs the lifespan of Drosophila melanogaster” (BMC Complementary and Alternative Medicine, 2012).

Columns and labels:
Test in all cases: fluorogenic JMJD demethylase assay kit, biotinylated histone H3 peptide substrate
Assay type in all cases: biochemical
JMJD2C = target: T1, JMJD2C (Homo sapiens, UniProt Q9H3R0)
T1 construct: gene KDM4C
T1 sequence (Q9H3R0 1-1056): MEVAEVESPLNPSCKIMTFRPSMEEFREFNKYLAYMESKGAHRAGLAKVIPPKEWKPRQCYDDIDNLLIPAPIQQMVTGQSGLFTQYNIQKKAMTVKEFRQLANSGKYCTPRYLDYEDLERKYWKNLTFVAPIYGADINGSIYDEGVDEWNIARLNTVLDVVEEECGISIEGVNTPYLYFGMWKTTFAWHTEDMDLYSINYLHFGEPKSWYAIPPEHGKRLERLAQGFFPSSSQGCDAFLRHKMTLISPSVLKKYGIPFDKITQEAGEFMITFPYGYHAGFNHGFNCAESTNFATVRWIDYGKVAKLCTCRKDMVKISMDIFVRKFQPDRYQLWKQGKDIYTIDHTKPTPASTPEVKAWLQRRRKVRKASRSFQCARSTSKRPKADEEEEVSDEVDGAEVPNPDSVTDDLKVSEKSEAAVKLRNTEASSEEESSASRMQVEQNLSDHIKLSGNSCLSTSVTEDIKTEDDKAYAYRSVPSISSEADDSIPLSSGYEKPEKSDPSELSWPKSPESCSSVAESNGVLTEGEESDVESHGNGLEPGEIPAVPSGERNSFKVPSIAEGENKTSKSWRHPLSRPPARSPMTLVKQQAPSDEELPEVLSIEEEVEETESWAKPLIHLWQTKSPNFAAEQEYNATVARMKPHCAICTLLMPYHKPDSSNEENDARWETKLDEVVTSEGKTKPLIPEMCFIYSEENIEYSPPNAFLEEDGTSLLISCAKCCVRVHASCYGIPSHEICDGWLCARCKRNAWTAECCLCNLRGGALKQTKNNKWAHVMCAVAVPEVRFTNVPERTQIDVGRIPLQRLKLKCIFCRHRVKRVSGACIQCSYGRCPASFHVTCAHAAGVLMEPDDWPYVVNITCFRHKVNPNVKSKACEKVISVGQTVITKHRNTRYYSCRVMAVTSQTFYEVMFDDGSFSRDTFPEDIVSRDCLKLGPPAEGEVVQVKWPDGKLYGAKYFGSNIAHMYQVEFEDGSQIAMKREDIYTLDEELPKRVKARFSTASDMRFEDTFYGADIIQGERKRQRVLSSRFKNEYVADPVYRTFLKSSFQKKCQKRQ

JMJD2B = target: T2, JMJD2B (Homo sapiens, UniProt O94953)
T2 construct: gene KDM4B
T2 sequence (O94953 1-1096): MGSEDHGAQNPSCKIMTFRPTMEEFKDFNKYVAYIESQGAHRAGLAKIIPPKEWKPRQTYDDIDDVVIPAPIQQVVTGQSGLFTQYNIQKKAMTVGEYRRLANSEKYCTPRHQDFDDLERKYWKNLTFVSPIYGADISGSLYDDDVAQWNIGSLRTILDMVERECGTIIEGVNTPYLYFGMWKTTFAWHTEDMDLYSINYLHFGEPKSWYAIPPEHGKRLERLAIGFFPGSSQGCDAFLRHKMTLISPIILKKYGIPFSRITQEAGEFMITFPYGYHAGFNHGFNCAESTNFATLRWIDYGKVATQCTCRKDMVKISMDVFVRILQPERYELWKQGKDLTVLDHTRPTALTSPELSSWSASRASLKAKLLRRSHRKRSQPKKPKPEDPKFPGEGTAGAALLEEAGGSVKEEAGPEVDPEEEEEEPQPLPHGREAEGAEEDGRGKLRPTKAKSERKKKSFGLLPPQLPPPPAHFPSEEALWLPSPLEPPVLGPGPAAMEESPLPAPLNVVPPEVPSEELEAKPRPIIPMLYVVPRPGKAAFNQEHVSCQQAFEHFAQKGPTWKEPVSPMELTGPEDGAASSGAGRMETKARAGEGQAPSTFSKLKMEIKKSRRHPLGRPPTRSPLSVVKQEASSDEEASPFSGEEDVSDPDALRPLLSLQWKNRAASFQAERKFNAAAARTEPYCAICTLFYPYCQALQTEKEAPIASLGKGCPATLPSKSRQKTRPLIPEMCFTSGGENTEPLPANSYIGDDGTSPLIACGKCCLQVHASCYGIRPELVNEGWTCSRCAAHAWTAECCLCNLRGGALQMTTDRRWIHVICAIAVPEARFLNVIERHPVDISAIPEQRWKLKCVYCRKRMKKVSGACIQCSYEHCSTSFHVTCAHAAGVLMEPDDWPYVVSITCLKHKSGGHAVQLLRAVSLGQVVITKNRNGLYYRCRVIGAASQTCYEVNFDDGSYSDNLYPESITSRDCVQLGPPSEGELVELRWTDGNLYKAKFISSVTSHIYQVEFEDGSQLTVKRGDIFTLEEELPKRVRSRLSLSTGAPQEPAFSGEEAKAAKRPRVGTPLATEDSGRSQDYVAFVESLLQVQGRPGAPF
From the text: IC50 values are mean ± SEM

JMJD2A = target: T3, JMJD2A (Homo sapiens, UniProt O75164)
T3 construct: gene KDM4A
T3 sequence (O75164 2-1064): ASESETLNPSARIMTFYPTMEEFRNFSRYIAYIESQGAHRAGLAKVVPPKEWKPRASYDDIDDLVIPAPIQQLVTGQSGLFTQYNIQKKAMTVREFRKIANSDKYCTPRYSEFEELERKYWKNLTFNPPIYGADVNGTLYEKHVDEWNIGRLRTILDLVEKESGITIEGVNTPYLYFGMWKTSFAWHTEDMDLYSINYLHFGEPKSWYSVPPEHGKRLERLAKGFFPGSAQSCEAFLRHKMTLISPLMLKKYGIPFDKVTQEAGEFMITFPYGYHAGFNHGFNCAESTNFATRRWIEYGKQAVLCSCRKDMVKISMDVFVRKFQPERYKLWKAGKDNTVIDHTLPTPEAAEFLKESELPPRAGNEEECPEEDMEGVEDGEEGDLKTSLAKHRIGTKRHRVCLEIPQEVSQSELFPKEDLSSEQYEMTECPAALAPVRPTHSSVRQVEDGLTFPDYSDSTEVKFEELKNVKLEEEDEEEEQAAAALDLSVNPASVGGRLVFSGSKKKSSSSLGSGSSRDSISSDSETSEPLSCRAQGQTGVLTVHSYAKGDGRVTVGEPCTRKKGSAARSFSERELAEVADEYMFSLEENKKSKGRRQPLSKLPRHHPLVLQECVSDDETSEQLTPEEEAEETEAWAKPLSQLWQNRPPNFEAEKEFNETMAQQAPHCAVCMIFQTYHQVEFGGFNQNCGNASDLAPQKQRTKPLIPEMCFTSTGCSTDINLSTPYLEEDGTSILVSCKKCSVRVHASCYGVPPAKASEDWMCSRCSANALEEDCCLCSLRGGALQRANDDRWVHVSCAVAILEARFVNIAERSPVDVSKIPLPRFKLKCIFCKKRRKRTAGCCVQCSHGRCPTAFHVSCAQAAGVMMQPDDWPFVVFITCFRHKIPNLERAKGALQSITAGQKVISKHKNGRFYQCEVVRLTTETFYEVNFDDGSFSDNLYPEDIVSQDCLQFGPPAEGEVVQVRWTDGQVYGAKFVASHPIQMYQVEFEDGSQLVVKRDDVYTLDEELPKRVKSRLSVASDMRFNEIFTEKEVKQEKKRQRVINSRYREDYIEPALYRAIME

For `O=Cc1ccc(O)c(O)c1` [PA, 3,4-dihydroxybenzaldehyde], the IC50 (JMJD2C) was 33.7 ± 7.8 µM, the IC50 (JMJD2B) was 38.6 ± 10 µM and the IC50 (JMJD2A) was 11.6 ± 1.5 µM.
